# Laboratory results: patent publication US10806798B2, “Compound with effects of thrombolysis, free radical scavenging and thrombus-targeting” (Shanghai Lumosa Therapeutics Co., Ltd., priority 2012, dated 2020)
# Marks after values point to notes of the source that are not given here. Side chains are listed from the residue outwards. Ends that are not written are not given here.
# Columns and labels:
# rats with stroke = assay: Immediate treatment after stroke onset, neural function scores (Zealonga method, 0 no loss to 5 death); assay type: in vivo, SD rats; conditions: 0.1 μmol/kg, 24 h after awake, n = 10
# Description: The in vivo anti-stroke activity of the present invention was represented by neural function scores, with a lower score indicating higher activity. A 10% chloral hydrate solution (400 mg/kg) was injected intraperitoneally into SD male rats (250-300 g) for anesthesia. An open incision of 2 cm in length was longitudinally made slightly on the right to the center of the neck, and the right common carotid artery trunk, carotid external artery and carotid internal artery were dissected along the margin of the inner side of sternocleidomastoid muscles. The open incisions in the carotid internal artery and the proximal end of the common carotid artery were occluded respectively with noninvasive arterial clips. A small open incision was made across the carotid external artery, and the distal end of the carotid external artery was ligated. The arterial clip at the proximal end of the carotid external artery was released, and 10 μl blood was drawn before the proximal end of the common carotid artery was again occluded with the noninvasive arterial clip. The 10 μl blood drawn was placed in a 1 mL EP vial and kept at RT for 30 min for coagulation of blood, and then transferred into a −20° C. refrigerator for 1 h to allow coagulation. After 1 h, the blood clots were taken out, into which 1 mL saline was added, and then broken into uniform microthrombus by using a steel spatula. The microthrombus suspension was then transferred to a 1 mL injector until use. At the same time when the clip on the carotid internal artery of the rat was released, 1 mL thrombus suspension in the injector was slowly injected from the carotid external artery of the rat to its proximal end, and the suspension was injected into the brain of the rat through the carotid internal artery. Subsequently, the proximal end of the carotid external artery was ligated, the arterial clips on the carotid internal artery and the common carotid artery were released, and blood flow was restored. The jugular common vein of the rats was dissected. The vein was immediately ligated, 3 drops of penicillin was dropped at the wound site, the wound was stitched up, and the animals were allowed to come around, as the sham operation group. Or injection of urokinase in normal saline (positive control group, at a dosage of 20000 IU/kg), normal saline (blank control group, at a dosage of 3 ml/kg), TMMZ in normal saline (component control group, at a dosage of 1 μmol/kg), a thrombolytic peptide ARPAK (SEQ. ID NO. 4), GRPAK (SEQ. ID NO. 5), RPAK (SEQ. ID NO. 3) or PAK in normal saline (component control group, at a dosage of 1 μmol/kg), or one of compounds Ia-Il in normal saline (at a dosage of 0.1 μmol/kg) was carried out. 24 h after the rats were awake, the degree of damage in the neural function was evaluated by the Zealonga method. A score of 0 indicated no sign of loss in neural function, 1 indicated the front limbs on the undamaged side could not stretch out, 2 indicated walking toward the undamaged side, 3 indicated tail-chasing walking in circles toward the undamaged side, 4 indicated involuntary walking with disturbance of consciousness, and 5 indicated death.
# [1] = system: NO free radicals (acetylcholine induced vasodilation); assay: NO radical scavenging: inhibition of acetylcholine induced vasodilation of aorta rings; design: species or system Wistar rats; conditions: final concentration 5×10^−6 M; n = 6
# Description: Male Wistar rats weighing 250 to 300 g were starved for 12 h before operation with free access to drinking water, and sacrificed by cervical dislocation. Thoracotomy was immediately carried out and thoracic aorta was taken out, connective tissues attached thereto were dissected, and vessels were cut into aorta rings with a length of 3 to 5 mm and placed into a perfusion bath. The bath contained 15 ml Krebs-Henseleit solution and was kept at a constant temperature of 37° C., into which 95% O2-5% CO2 gas was charged. The anchor to which the aorta rings were immobilized was connected to a tension transducer, and vasomotion curves were recorded on a dual-trace recorder at a paper speed of 1 mm/min. With the static tension adjusted to 1.0 g and 30 min of equilibration, norepinephrine at a final concentration of 10^−8 M was dosed to allow the aorta to contract for preexcitation. Norepinephrine was washed off, followed by 30 min of equilibration, and norepinephrine was added into the bath to a final concentration of 10^−8 M. When the contraction tension was steady at a plateau level, 20 μl normal saline (blank), a 20 μl solution of any one of compounds Ia to Il in normal saline (at a final concentration of 5×10^−6 M), or a 20 μl solution of NO free radical scavenger (1,3-dioxo-2-(4′-oxyacetoxyl-phenyl)-4,4,5,5-tetramethylimidazoline, TMMZ) in normal saline (at a final concentration of 5×10^−6 M) was added into the bath. When stabilized, a 20 μl acetylcholine in normal saline was added (at a final concentration of 10^−6 M). The NO scavenging ability of the drugs was expressed as a percentage of inhibition of acetylcholine induced vasodilation.
Substance,Neural function scores (Mean ± SD) (rats with stroke),Percentage of inhibition (Mean ± SD %) of vasodilatation induced by acetylcholine [1] [%]
"1,3-dioxo-2-{4′-oxyacetyl-[N^ω-(Pro-Ala-Lys)-Lys-Arg-Gly-Asp-Val]phenyl}-4,4,5,5-tetramethylimidazoline (K([Lys-Ala-Pro])RGDV; not fully specified (N-terminus); also: 4′-oxyacetylphenyl-1,3-dioxo-4,4,5,5-tetramethylimidazoline (nitronyl nitroxide) conjugate, attachment amine not clear) [Ik]",0.56 ± 0.53 ^c,11.13
"1,3-dioxo-2-{4′-oxyacetyl-[N^ω-(Ala-Arg-Pro-Ala-Lys)-Lys-Arg-Gly-Asp-Ser]phenyl}-4,4,5,5-tetramethylimidazoline [Ia]",1.00 ± 1.01 ^b,22.82
"1,3-dioxo-2-{4′-oxyacetyl-[N^ω-(Arg-Pro-Ala-Lys)-Lys-Arg-Gly-Asp-Ser]phenyl}-4,4,5,5-tetramethylimidazoline [Ig]",1.00 ± 1.19 ^b,24.40
"1,3-dioxo-2-{4′-oxyacetyl-[N^ω-(Pro-Ala-Lys)-Lys-Arg-Gly-Asp-Ser]phenyl}-4,4,5,5-tetramethylimidazoline (K([Lys-Ala-Pro])RGDS; not fully specified (N-terminus); also: 4′-oxyacetylphenyl-1,3-dioxo-4,4,5,5-tetramethylimidazoline (nitronyl nitroxide) conjugate, attachment amine not clear) [Ij]",0.90 ± 1.10 ^c,27.22
"1,3-dioxo-2-{4′-oxyacetyl-[N^ω-(Pro-Ala-Lys)-Lys-Arg-Gly-Asp-Phe]phenyl}-4,4,5,5-tetramethylimidazoline (K([Lys-Ala-Pro])RGDF; not fully specified (N-terminus); also: 4′-oxyacetylphenyl-1,3-dioxo-4,4,5,5-tetramethylimidazoline (nitronyl nitroxide) conjugate, attachment amine not clear) [Il]",0.50 ± 0.53 ^c,22.62
"1,3-dioxo-2-{4′-oxyacetyl-[N^ω-(Ala-Arg-Pro-Ala-Lys)-Lys-Arg-Gly-Asp-Val]phenyl}-4,4,5,5-tetramethylimidazoline [Ib]",0.56 ± 1.01 ^c,
"1,3-dioxo-2-{4′-oxyacetyl-[N^ω-(Gly-Arg-Pro-Ala-Lys)-Lys-Arg-Gly-Asp-Ser]phenyl}-4,4,5,5-tetramethylimidazoline",1.22 ± 1.32 ^b,17.60
"1,3-dioxo-2-{4′-oxyacetyl-[N^ω-(Arg-Pro-Ala-Lys)-Lys-Arg-Gly-Asp-Val]phenyl}-4,4,5,5-tetramethylimidazoline [Ih]",1.33 ± 1.22 ^b,
"1,3-dioxo-2-{4′-oxyacetyl-[N^ω-(Arg-Pro-Ala-Lys)-Lys-Arg-Gly-Asp-Phe]phenyl}-4,4,5,5-tetramethylimidazoline [Ii]",0.87 ± 1.05 ^c,13.75
"1,3-dioxo-2-{4′-oxyacetyl-[N^ω-(Gly-Arg-Pro-Ala-Lys)-Lys-Arg-Gly-Asp-Phe]phenyl}-4,4,5,5-tetramethylimidazoline [If]",0.60 ± 0.84 ^c,
"1,3-dioxo-2-{4′-oxyacetyl-[N^ω-(Ala-Arg-Pro-Ala-Lys)-Lys-Arg-Gly-Asp-Phe]phenyl}-4,4,5,5-tetramethylimidazoline [Ic]",0.89 ± 1.36 ^c,21.78
